Assay results as given in patent US20030162815A1, “Thiazolidinedione salt for treatment of diabetes mellitus” (priority 2003, published 2003).

Legend:
Type in all cases: physicochemical
[1] = Flow properties of the Hydrobromide (Hausner Ratio, bulk density vs tapped bulk density); conditions: ratio between bulk density and tapped bulk density; product of Example 3
Description: The ratio between the bulk density and the tapped bulk density (Hausner Ratio) of the Hydrobromide was determined using standard methods (“Pharmaceutics—The Science of Dosage Form Design”, editor M. Aulton, 1988, published by: Churchill Livingstone).

[2] = Solid state stability of the Hydrobromide (storage for 1 month, HPLC assay for final content and degradation products); conditions: product of Example 3
Description: The solid state stability of the drug substance was determined by storing approximately 1.0 g of the material in a glass bottle at i) 40° C./75% Relative Humidity (RH), open exposure, for 1 month and b) at 50° C., closed, for 1 month. The material was assayed by HPLC for final content and degradation products in both cases.

[3] = Solubility of the Hydrobromide in water (visual, confirmed by HPLC assay of a saturated solution); conditions: thermodynamic from solid, product of Example 3
Description: The visual solubility was confirmed by an HPLC assay of a saturated solution.

Compound: Br.CN(CCOc1ccc(CC2SC(=O)NC2=O)cc1)c1ccccn1 (stereo not drawn) [Hydrobromide, 5-[4-[2-(N-methyl-N-(2-pyridyl)amino)ethoxy]benzyl]thiazolidine-2,4-dione hydrobromide]
- Hausner Ratio [1]: 1.3
- Solid state stability: HPLC assay ([2]; 40° C./75% RH, open exposure): 98 % initial
- Solid state stability: degradation ([2]; 40° C./75% RH, open exposure): No significant degradation observed
- Solid state stability: HPLC assay ([2]; 50° C., closed): 98 % initial
- Solid state stability: degradation ([2]; 50° C., closed): No significant degradation observed
- solubility [3]: 6000 µg/mL
